Results as given in ChEMBL document CHEMBL1157597, “Exploring a synthetic organoselenium compound for antioxidant pharmacotherapy--toxicity and effects on ROS-production” (Bioorg Med Chem, 2010).
Activity calls are given as the source filed them. No cut-off for these calls is given here.

What was measured:
[1] = Antioxidant activity against ABTS radicals assessed as trolox equivalents in phosphate buffer of pH 7.4 at 6.08 uM by ABTS assay; type: functional
[2] = Cytotoxicity against human MG63 cells assessed as plasma membrane damage at 60 uM after 7 days by LDH assay; type: cell-based; settings: mg-63, 168 h
THP-1 = assay: Antioxidant activity against ROS-production in PMA-stimulated human THP1 cells by chemiluminescence; type: cell-based
MRC5 [3] = assay: Cytotoxicity against human MRC5 cells assessed as plasma membrane damage at 60 uM after 7 days by LDH assay; type: cell-based; settings: mrc5, 168 h
Caco-2 [4] = assay: Cytotoxicity against human Caco-2 cells assessed as decrease in proliferation up to 200 uM after 7 days by alamar blue assay; type: cell-based; settings: caco-2, 168 h
HEK293 [5] = assay: Cytotoxicity against HEK293 cells assessed as cell death at 60 uM after 7 days by LDH assay; type: cell-based; settings: human, hek293, 168 h
MRC5 [6] = assay: Cytotoxicity against human MRC5 cells assessed as cell death at 60 uM after 7 days by LDH assay; type: cell-based; settings: mrc5, 168 h
Caco-2 [7] = assay: Cytotoxicity against human Caco-2 cells assessed as plasma membrane damage at 60 uM after 7 days by LDH assay; type: cell-based; settings: caco-2, 168 h
Neutrophil = assay: (§1) Antioxidant activity against ROS-production in human neutrophils by chemiluminescence; type: functional, cell-based
[8] = as §1; type: functional, cell-based; settings: Neutrophil
SH-SY5Y [9] = assay: Cytotoxicity against human SH-SY5Y cells assessed as decrease in proliferation up to 200 uM after 7 days by alamar blue assay; type: cell-based; settings: 168 h
Caco-2 [10] = assay: Cytotoxicity against human Caco-2 cells assessed as cell death at 60 uM after 7 days by LDH assay; type: cell-based; settings: caco-2, 168 h
HEK293 [11] = assay: Cytotoxicity against HEK293 cells assessed as decrease in proliferation up to 200 uM after 7 days by alamar blue assay; type: cell-based; settings: human, hek293, 168 h
SH-SY5Y [12] = assay: Cytotoxicity against human SH-SY5Y cells assessed as cell death at 60 uM after 7 days by LDH assay; type: cell-based; settings: 168 h
[13] = Cytotoxicity against human MG63 cells assessed as cell death at 60 uM after 7 days by LDH assay; type: cell-based; settings: mg-63, 168 h
HEK293 [14] = assay: Cytotoxicity against HEK293 cells assessed as plasma membrane damage at 60 uM after 7 days by LDH assay; type: cell-based; settings: human, hek293, 168 h
[15] = Cytotoxicity against human MG63 cells assessed as decrease in proliferation up to 200 uM after 7 days by alamar blue assay; type: cell-based; settings: mg-63, 168 h
SH-SY5Y [16] = assay: Cytotoxicity against human SH-SY5Y cells assessed as plasma membrane damage at 60 uM after 7 days by LDH assay; type: cell-based; settings: 168 h
MRC5 [17] = assay: Cytotoxicity against human MRC5 cells assessed as decrease in proliferation up to 200 uM after 7 days by alamar blue assay; type: cell-based; settings: mrc5, 168 h

Row | SMILES | Activity [1] | Activity [2] | Activity (THP-1) | Activity (MRC5 [3]) | Activity (Caco-2 [4]) | Activity (HEK293 [5]) | Activity (MRC5 [6]) | Activity (Caco-2 [7]) | Activity (Neutrophil) | IC50 [8] [nM] | Activity (SH-SY5Y [9]) | Activity (Caco-2 [10]) | Activity (HEK293 [11]) | Activity (SH-SY5Y [12]) | Activity [13] | Activity (HEK293 [14]) | Activity [15] | Activity (SH-SY5Y [16]) | Activity (MRC5 [17])
1 | CC1Cc2cc(O)ccc2[Se]1 (stereo unspecified) | Active | Non-toxic | Dose-dependent effect | Non-toxic | Non-toxic | Non-toxic | Non-toxic | Non-toxic | Dose-dependent effect | 1000 | Non-toxic | Non-toxic | Non-toxic | Non-toxic | Non-toxic | Non-toxic | Non-toxic | Non-toxic | Non-toxic
2 | CC(=O)N[C@@H](CS)C(=O)O | 2.4 | – | – | – | – | – | – | – | – | – | – | – | – | – | – | – | – | – | –
3 | O=C1O[C@H]([C@@H](O)CO)C([O-])=C1O.[Na+] | Active | – | – | – | – | – | – | – | – | – | – | – | – | – | – | – | – | – | –
4 | Cc1c(C)c2c(c(C)c1O)CCC(C)(C(=O)O)O2 (stereo unspecified) [TROLOX] | – | Non-toxic | – | Non-toxic | – | Non-toxic | Non-toxic | Non-toxic | – | – | – | Non-toxic | – | Non-toxic | Non-toxic | Non-toxic | – | Non-toxic | –
